From patent US9718770B2, “Substituted thioureas as heat shock protein 70 inhibitors” (Institute of Pharmacology and Toxicology Academy of …, priority 2013, dated 2017)

Columns and labels:
BT474 = assay: CDI of example compounds and Lapatinib (ATPlite cell survival); assay type: cell-based; parameters: key: CDI = AB/(A×B); <1 synergistic; conditions: compound 5 μM + Lapatinib 1 μM, 72 h; Lapatinib-sensitive human breast cancer cells; CDI<1 synergistic, <0.7 very significant, >1 antagonistic
Method: (§1) Cells: (BT474 and SK-BR3 are Lapatinib-sensitive human breast cancer cell strains; BT/LapR and SK/LapR are secondary Lapatinib-resistant human breast cancer cell strains upon Lapatinib stimulation; MDA-MB-361 and MDA-MB-453 are natural Lapatinib-resistant human breast cancer cell strains. BT474, MDA-MB-361, SK-BR3 and MDA-MB-453 are from American Type Culture Collection (ATCC))
(§2) In a 100 mm culture dish full of adherent cells, digestion with 1 ml 0.25% pancreatin (GIBCO) was carried out at 37° C. for 5 min, and the reaction was stopped with 2 ml medium (containing 10% FBS, GIBCO). The cells were dispersed and collected. After cell count, the cells were diluted to a concentration of 1×10^5 cells/ml, and were seeded to a 96-well plate at 50 μl/well, 5000 cell/well, 60 wells in total, PBS instead of cells was added to the wells of the outmost circle, and the incubation was carried out at 37° C. for 24 h for adherence.
(§3) For the sample group, samples to be tested were diluted with DMSO to a final concentration of 5 μM; to control wells, the medium containing the same concentration of solvent corresponding to the compound was added, the concentrations of the compounds were identical in each well, 5 wells in parallel were set for each concentration, 25 μL/well, and 25 μL medium was added to each well (for the combination group, 25 μL Lapatinib was added to reach a final concentration of 1 μM). The incubation was carried out at 37° C. for 72 h.
(§4) To each well, 50 μL ATPlite kit substrate solution was added. The plate was under shaking for 3 min, and was then placed in dark for 10 min. The lysis supernatant was drawn at 100 μL/well, and placed in a luminescent plate. The incubated luminescent plate was placed in an iluminescence apparatus, and the iluminescent value was read.
(§5) Data Processing Cell survival rate (%)=Experimental group RLU/control group RLU×100%
(§6) Coefficient of drug interaction (CDI) is used to evaluate the interaction of two drugs, CDI is calculated in accordance with the following formula: CDI=AB/(A×B)×100%. The calculation is performed according to the number of live cells (luminescent value), if CDI<1, the two drugs have a synergistic effect; if CDI<0.7, the synergistic effect is very significant; if CDI=1, the effect of the two drugs in combination is the sum of the effects of the two drugs; if CDI>1, the two drugs have an antagonistic effect.

MDA-MB-361 = assay: as above; assay type: cell-based; parameters: key: CDI = AB/(A×B); <1 synergistic; conditions: compound 5 μM + Lapatinib 1 μM, 72 h; natural Lapatinib-resistant human breast cancer cells; CDI<1 synergistic
Method: as §1, §2, §3, §4, §5, §6

MDA-MB-453 = assay: as above; assay type: cell-based; parameters: key: CDI = AB/(A×B); <1 synergistic; conditions: compound 5 μM + Lapatinib 1 μM, 72 h; natural Lapatinib-resistant human breast cancer cells; CDI<1 synergistic
Method: as §1, §2, §3, §4, §5, §6

SK-BR3 = assay: as above; assay type: cell-based; parameters: key: CDI = AB/(A×B); <1 synergistic; conditions: compound 5 μM + Lapatinib 1 μM, 72 h; Lapatinib-sensitive human breast cancer cells; CDI<1 synergistic
Method: as §1, §2, §3, §4, §5, §6

BT/Lap^R1.0 = assay: as above; assay type: cell-based; conditions: compound 5 μM + Lapatinib 1 μM, 72 h; secondary Lapatinib-resistant human breast cancer cells; CDI<1 synergistic
Method: as §1, §2, §3, §4, §5, §6

SK/Lap^R1.0 = assay: as above; assay type: cell-based; conditions: compound 5 μM + Lapatinib 1 μM, 72 h; secondary Lapatinib-resistant human breast cancer cells; CDI<1 synergistic
Method: as §1, §2, §3, §4, §5, §6

Hsp70 ATPase = biological target: T1, Hsp70 ATPase (Homo sapiens, UniProt P0DMV8); assay: Inhibition of Hsp70 ATPase activity (malachite green); assay type: biochemical; conditions: 200 μM; repeated screening carried out twice; Hsp70/Hsp40, 1 mM ATP; read-out: Inhibitory rate (%) on activity of Hsp70 ATPase
T1 construct: made in house; host or cells: E. coli
Method: (1) Protein: Humanized Hsp70, Hsp40, expressed by E. coli.
(2) Sample to be tested: 26 compound solids with different colors and states. Positive drugs AZ (CAS:1054543-47-3) and VER 155008 (CAS: 1134156-31-2) were synthesized in the laboratory.
(4) ATPase Assay buffer: • 0.017% Triton X-100; • 100 mM Tris-HCl; • 20 mM KCl; • 6 mM MgCl2, pH 7.4.
1) 13.08 μl DnaK (0.15 mg/mL, 2.14 μM), 1.96 μl DnaJ (1 mg/mL, 25 μM) were dissolved in 7.96 μl Assay Buffer (0.017% Triton X-100, 100 mM Tris-HCl, 20 mM KCl, and 6 mM MgCl2, pH 7.4), and the resultant solution was added to each well of the 96 well plate;
2) to each well of the 96 well plate, 1 μL sample to be tested (5 mM) or DMSO (solvent) was added, and vortexed with a Vortex agitator for 10 min; and then standing at 37° C. for 30 min;
3) to each well, 1 μL 25 mM ATP was added, to trigger the enzymatic reaction; (in each well, the final reaction volume was 25 μL, the final concentration of DnaK was 1.12 μM, the final concentration of DnaJ was 1.96 μM, the final concentration of DMSO was 4%, the final concentration of Triton X-100 was 0.01%, the final concentration of ATP was 1 mM, and the final concentration of sample to be tested was 200 μM), the enzymatic reaction was carried out at 37° C. for 3 h;
4) 80 μL Malachite green staining solution was then added to each well, and was vortexed gently;
5) 10 μL of 34% citrate sodium was then added immediately, and vortexed gently, to stop the ATP hydrolysis not caused by ATPase;
6) the resultant mixture was mixed thoroughly at 37° C. for 15 min, and OD620 was measured.
The inhibitory rate of Hsp70 ATPase activity is calculated in accordance with the following formula: Inhibitory rate (%)=(DMSO well OD−Experimental well OD)/(DMSO well OD−Blank well OD)×100
Criteria for preliminary screening: during preliminary screening, an example compound is regarded as effective in inhibition as long as its inhibitory rate is above 20% for Hsp70 ATPase at 200 μM.

T1 sequence (P0DMV8 2-641 limits assumed): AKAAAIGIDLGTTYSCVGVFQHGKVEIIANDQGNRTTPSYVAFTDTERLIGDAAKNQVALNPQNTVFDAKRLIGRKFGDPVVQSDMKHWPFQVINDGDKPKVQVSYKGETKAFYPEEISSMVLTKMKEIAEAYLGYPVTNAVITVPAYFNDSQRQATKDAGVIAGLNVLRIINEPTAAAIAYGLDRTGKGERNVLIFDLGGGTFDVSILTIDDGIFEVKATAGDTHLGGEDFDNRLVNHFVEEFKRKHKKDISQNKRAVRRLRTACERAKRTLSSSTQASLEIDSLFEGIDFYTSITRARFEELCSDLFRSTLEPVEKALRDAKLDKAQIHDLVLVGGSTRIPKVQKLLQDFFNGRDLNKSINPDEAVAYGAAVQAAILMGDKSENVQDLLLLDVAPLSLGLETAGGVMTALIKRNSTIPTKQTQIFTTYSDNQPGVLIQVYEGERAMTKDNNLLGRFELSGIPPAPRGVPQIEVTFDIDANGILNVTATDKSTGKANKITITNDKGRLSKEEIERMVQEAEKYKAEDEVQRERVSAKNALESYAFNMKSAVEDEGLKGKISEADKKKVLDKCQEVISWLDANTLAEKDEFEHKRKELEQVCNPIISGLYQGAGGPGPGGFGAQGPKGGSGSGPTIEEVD

Compound | CDI of example compounds and Lapatinib, BT474 (BT474) | CDI of example compounds and Lapatinib, MDA-MB-361 (MDA-MB-361) | CDI of example compounds and Lapatinib, MDA-MB-453 (MDA-MB-453) | CDI of example compounds and Lapatinib, SK-BR3 (SK-BR3) | CDI of example compounds and Lapatinib, BT/Lap^R1.0 (BT/Lap^R1.0) | CDI of example compounds and Lapatinib, SK/Lap^R1.0 (SK/Lap^R1.0) | inhibition at 200 µM (Hsp70 ATPase) [%]
COc1cc(/C=C/C(=O)NC(NC(=S)Nc2ccccc2)C(C)C)cc(OC)c1OC (centres unmarked) [Example 36, (2E)-N-[2-methyl-1-(3-phenylthioureido)propyl]-3-(3,4,5-trimethoxyphenyl) acrylamide] | 0.97 | 0.98 | 1.3 | 1.07 | 0.96 | 0.94 | 
COc1cc(/C=C/C(=O)NC(CC(C)(C)C)NC(=S)Nc2ccccc2)cc(OC)c1OC (centres unmarked) [Example 32, (2E)-N-[3,3-dimethyl-1-(3-phenylthioureido)butyl]-3-(3,4,5-trimethoxyphenyl)acrylamide] | 0.65 | 0.91 | 1.42 | 1.13 | 1.25 | 0.89 | 44.1
COc1cc(/C=C/C(=O)NC(CC(C)C)NC(=S)Nc2ccccc2)cc(OC)c1OC (centres unmarked) [Example 24, (2E)-N-[3-methyl-1-(3-phenylthioureido)butyl]-3-(3,4,5-trimethoxyphenyl) acrylamide] | 1.03 | 0.92 | 1.12 | 1.04 | 0.98 | 1 | 50.4
COc1cc(/C=C/C(=O)NC(NC(=S)Nc2cccnc2)C2CC2)cc(OC)c1OC (centres unmarked) [Example 29, (2E)-N-[cyclopropyl-(3-pyridin-3-ylthioureido)-methyl]-3-(3,4,5-trimethoxyphenyl) acrylamide] | 1.05 | 1 | 1.05 | 0.98 | 0.99 | 1.26 | 2.55
Cc1ccccc1NC(=S)NC(CC(C)C)NC(=O)/C=C/c1ccccc1 (centres unmarked) [Example 47, N-[3-methyl-1-(3-o-methylphenylthioureido)butyl] cinnamamide] | 0.84 | 1.05 | 1.39 | 1.15 | 0.97 | 0.98 | 61.3
COc1cc(/C=C/C(=O)NC(CC(C)C)NC(=S)NC2CCCCC2)cc(OC)c1OC (centres unmarked) [Example 51, (2E)-N-[1-(3-cyclohexylthioureido)-3-methylbutyl]-3-(3,4,5-trimethoxyphenyl) acrylamide] | 0.73 | 1.09 | 1.27 | 0.96 | 0.94 | 1.38 | 46.2
